Experimental data published in PubChem BioAssay (NCI).
Values joined by “and” are separate entries in the source; they are usually repeats but may differ in a detail not shown here. Equal entries are not always repeated.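 Exposure lasted 48 hours, with cells grown in 96-well plates and compounds tested at five concentrations. Here, GI50 denotes the concentration required for 50% inhibition of growth. TGI: concentration producing complete growth inhibition.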 Where a SMILES comes first, the peptide text is derived from it. [ ]: non-standard residue; d: D form. 2Nal = N[CH](Cc1ccc2ccccc2c1)C(=O)O

Key:
Test in all cases: NCI tumour cell line growth inhibition, 48 h
[1] = tested on: HCT-15 colon
[2] = tested on: DU-145 prostate
[3] = tested on: SN12C renal
[4] = tested on: NCI-H522 lung
[5] = tested on: OVCAR-4 ovarian
[6] = tested on: SK-MEL-28 melanoma
[7] = tested on: SK-MEL-2 melanoma
[8] = tested on: OVCAR-8 ovarian
[9] = tested on: SF-295 CNS
[10] = tested on: EKVX NSCLC

| SMILES | GI50 [1] | TGI [1] | GI50 [2] | TGI [2] | GI50 [3] | TGI [3] | GI50 [4] | TGI [4] | GI50 [5] | TGI [5] | GI50 [6] | TGI [6] | GI50 [7] | TGI [7] | GI50 [8] | TGI [8] | GI50 [9] | TGI [9] | GI50 [10] | TGI [10] |
| --- | --- | --- | --- | --- | --- | --- | --- | --- | --- | --- | --- | --- | --- | --- | --- | --- | --- | --- | --- | --- |
| Cc1ccc(NC2=C(Cl)C(=O)c3nc(C)ccc3C2=O)cc1 | 694 nM | 2.32 µM | 1470 nM | 2.85 µM | 1370 nM | 2.85 µM | 1880 nM | 4.53 µM | 1.28 µM | 2.66 µM | 1930 nM | 3.43 µM | 1820 nM | 3.79 µM | 1470 nM | 3.14 µM | 1550 nM | 2.95 µM | 1.55 µM | 2.92 µM |
| CC1=COC2=C(C)C(=O)C(=O)c3c(C)ccc1c32 |  | 11.5 µM |  | 20.3 µM |  | 14.1 µM |  | 8.27 µM |  | 13.5 µM |  | > 100 µM |  | > 40.1 µM |  | 12.4 µM |  | 18.8 µM |  | 24.7 µM |
| C=CC1=C(C)C2=NC1=CC1=NC(=C(CC)/C1=C/O)C=C1C=C3C(=O)C(C(=O)OC)C(=C4NC(=C2)C(C)C4CCC(=O)OC/C=C(\C)CCCC(C)CCCC(C)CCCC(C)C)C3=N1 (configuration not stated) (tested in a mixture with another compound) |  | > 100 µM |  | > 100 µM |  | > 100 µM |  | 73 µM |  | > 100 µM |  | > 100 µM |  | > 100 µM |  | > 100 µM |  | > 100 µM |  | > 100 µM |
| CCN(C)S(=O)(=O)Nc1cccc(Nc2ncnc3cc(NC(=O)CCl)ccc23)c1Cl | 1040 nM | 5.52 µM | 3690 nM | 8.86 µM | 1080 nM | 4.46 µM | 693 nM | 2.03 µM | 3.53 µM | 8.75 µM | 3920 nM | 15.8 µM | 4360 nM | 14.3 µM | 5180 nM | 17.6 µM | 3500 nM | 7.4 µM | 3.9 µM | 13.6 µM |
| O=C(Nc1ccc(-n2cc(-c3ccncc3)c(-c3ccc(Cl)c(O)c3)n2)cc1)c1cc(Cl)cc(Cl)c1 | 1310 nM | > 21.8 µM | > 32800 nM | > 100 µM | > 100000 nM | > 100 µM | 2310 nM | 7.94 µM | > 94 µM | > 100 µM | 2420 nM | > 30.8 µM | 5240 nM | > 100 µM | 14400 nM | > 100 µM | 738 nM | 2.79 µM | 50.7 µM | > 100 µM |
| C=CC(=O)Nc1cc2c(Nc3ccc(OCc4ccccn4)c(Cl)c3)ncnc2cc1OCCN1CCOCC1 | 2490 nM | 14.9 µM | 502 nM | > 100 µM | 1490 nM | > 100 µM | 366 nM | 22.6 µM | 5.9 µM | > 100 µM | 5110 nM | 19.3 µM | 6110 nM | 37.5 µM | 5260 nM | > 100 µM | 4870 nM | > 100 µM | 0.775 µM | > 73.2 µM |
| CC/C(=C(\c1ccc(O)cc1)c1ccc(OCCNC)cc1)c1ccccc1 | 1800 nM and 1560 nM | 3.92 µM and 3.2 µM and 3.71 µM | 2150 nM and 1710 nM and 2330 nM | 4.36 µM and 3.46 µM and 5.25 µM | 1980 nM and 2860 nM and 3020 nM | 8.84 µM and 9.58 µM and 10.4 µM | 1780 nM and 1500 nM and 1970 nM | 3.84 µM and 3.19 µM and 3.83 µM | 4.62 µM and 4.21 µM | 18.5 µM and 15 µM | 1670 nM and 1550 nM and 1740 nM | 3.04 µM and 2.94 µM and 3.28 µM | 2040 nM and 1850 nM and 2100 nM | 4.02 µM and 3.65 µM and 3.85 µM | 2600 nM and 2180 nM and 2400 nM | 6.66 µM and 5.28 µM and 5.78 µM | 1720 nM and 1840 nM and 1940 nM | 3.48 µM and 3.55 µM and 4.09 µM | 2.41 µM and 2.04 µM | 8.86 µM and 5.59 µM |
| NC(N)=NC(N)=NCCc1ccccc1 | > 100000 nM | > 100 µM | > 100000 nM | > 100 µM | > 100000 nM | > 100 µM | 44700 nM and > 100000 nM | > 100 µM | 66.7 µM and 97.9 µM | > 100 µM | > 100000 nM | > 100 µM | > 100000 nM | > 100 µM | > 100000 nM | > 100 µM | 53200 nM and > 100000 nM | > 100 µM | 6.79 µM and 7.74 µM | > 100 µM |
| O=C=Nc1ccc(Cc2ccc(N=C=O)cc2)cc1 (tested in a mixture with another compound) | > 25 µg/mL | > 25 µg/mL | > 25 µg/mL | > 25 µg/mL | > 25 µg/mL | > 25 µg/mL | > 25 µg/mL | > 25 µg/mL | > 25 µg/mL | > 25 µg/mL | > 25 µg/mL | > 25 µg/mL | > 25 µg/mL | > 25 µg/mL | > 25 µg/mL | > 25 µg/mL | > 25 µg/mL | > 25 µg/mL | > 25 µg/mL | > 25 µg/mL |
| O=C1/C(=C\c2ccccc2)c2ccccc2N1Cc1ccccc1 |  | 14.5 µM |  | 17 µM |  | 28.9 µM |  | 22 µM |  | 27.5 µM |  | 15.7 µM |  | 17.1 µM |  | 19 µM |  | 16.2 µM |  | 17.1 µM |
| C/C=C(/C)C(=O)OC1C=C(CO)C(=O)C(OC(=O)/C(C)=C\C)C1C(C)C (configuration not stated) | 460 nM | 1.86 µM | 618 nM | 1.95 µM | 546 nM | 1.59 µM | 630 nM | 2.23 µM | 1.12 µM | 2.49 µM | 1390 nM | 2.8 µM | 1820 nM | 3.47 µM | 633 nM | 2.21 µM | 1820 nM | 3.35 µM | 1.75 µM | 3.22 µM |
| CC(NC(=O)C(N)Cc1ccccc1)C(=O)NC(Cc1ccc(O)cc1)C(=O)NC(Cc1c[nH]c2ccccc12)C(=O)NC(CCCCN)C(=O)NC(C(=O)NC(C)C(=O)NC(Cc1ccc2ccccc2c1)C(N)=O)C(C)C (configuration not stated) (H-FAYWKVA[2Nal]-NH2; configuration not given here) | 22100 nM | > 12.5 µM and 61.8 µM |  | > 12.5 µM | > 100000 nM | > 100 µM |  | > 12.5 µM | 27.2 µM | > 12.5 µM and 84.3 µM | 53400 nM | > 100 µM | 25100 nM | > 12.5 µM and 52.1 µM | 37200 nM | > 100 µM |  | > 12.5 µM | 25.9 µM | > 12.5 µM and 81 µM |
